Patent US9155795B2, “CXCR4 receptor compounds” (Anchor Therapeutics, Inc., priority 2010, dated 2015)
Like-named read-outs stand apart in the source and are kept apart here. Each block holds one compound with its values, some of them ahead of it. Where a SMILES comes first, the peptide text is derived from it. Where no end group is shown, it is not given here. [ ]: non-standard residue; d: D form. The star is where a group is joined. Hexadecanesulfonyl = CCCCCCCCCCCCCCCCS(=O)(=O)*; Palmitoyl = CCCCCCCCCCCCCCCC(=O)*

Key:
CXCR4 [1] = molecular target: T1, CXCR4 (Homo sapiens, UniProt P61073); assay: Calcium flux assay, agonist mode, FLIPR (CCRF-CEM cells); type: cell-based; conditions: percent of maximum response compared with SDF-1α, read-out: % Intrinsic Activity
T1 construct: CCRF-CEM cells, a human T-cell ALL line that endogenously expresses CXCR4; endogenous in cells; host or cells: CCRF-CEM (human T-cell acute lymphoblastic leukemia line)
Experimental: The calcium flux assay was used to assess the test compounds' ability to activate the CXCR4 receptor in CCRF-CEM cells (human T lymphoblasts from acute lymphoblastic leukemia). […] After dye loading by incubating with Calcium-4 dye at 37° C. for 1 hour, cell plates were read at 37° C. using the Fluorescent Imaging Plate Reader (FLIPR). Receptor activation was assessed by measuring changes in fluorescent intensity after the addition of the test compounds or the reference agonist SDF-1α on the FLIPR.

CXCR4 [2] = molecular target: T1, CXCR4; assay: CXCR4 chemotaxis assay (Transwell, CCRF-CEM cells); type: cell-based; conditions: DMSO vehicle
Source text: Chemotaxis assays are utilized to determine the effect of compound on the directed migration of cells in response to chemokine. In general, cells that express a receptor of interest are placed in the upper chamber of a Transwell chemotaxis plate (Corning) and allowed to migrate through a polycarbonate membrane to a lower chamber containing the appropriate receptor-specific ligand. To test for antagonist or potentiating activity, cells are mixed with the desired concentration of compound prior to addition to the upper chamber. Conversely, agonist activity is determined by adding compound in the bottom chamber only without endogenous chemokine. The effect of compound is quantified by several parameters, including the extent of maximum response, the shift of agonist dose-response curves, and the area under the curve.
To measure the CXCR4 test compound elicited CXCR4-dependent migration of cells, the appropriate concentration of control agonist CXCL12 or test compound is diluted in phenol red-free RMPI-1640/20 mM HEPES/0.5% BSA buffer and placed in the bottom chamber of a transwell apparatus. CCRF-CEM cells, a human T-cell ALL line that endogenously expresses CXCR4, are washed twice in buffer and resuspended at 133,000 cells/ml. A 75 μl sample of the cell suspension is mixed with the test compound of interest and placed in the upper chamber of a 5-micron transwell apparatus.
To measure the effect of test compound on CXCL12 elicited CXCR4-dependent migration of cells, the appropriate concentration of CXCL12 is diluted in phenol red-free RMPI-1640/20 mM HEPES/0.5% BSA buffer and placed in the bottom chamber of a transwell apparatus. CCRF-CEM cells, a human T-cell ALL line that endogenously expresses CXCR4, are washed twice in buffer and resuspended at 133,000 cells/ml. A 75 μl sample of this suspension is mixed with the test compound of interest and placed in the upper chamber of a 5-micron transwell apparatus.
To initiate cell migration, the assembled transwell plate is placed in a 37° C., […] incubator for a specified time interval, typically between 30 and 120 minutes. After incubation, the unit is disassembled and the lower chamber placed at −80° C. overnight to facilitate lysis of cells. To quantify migrated cells, plates are thawed at 37° C. in a humidified chamber, and then a sample volume is removed from each well and mixed with an equal volume of CyQuant (Invitrogen) working solution in opaque plates. The fluorescence intensity of each well represents the DNA content and is directly proportional to cell number. Each sample is typically run in duplicate or triplicate and each plate include two separate negative controls. The plate background control, which includes no cells in the upper chamber, is subtracted from all values. […]

CXCR4 [3] = molecular target: T1, CXCR4; assay: Calcium flux assay, agonist mode, Flexstation (CCRF-CEM cells); type: cell-based; conditions: CCRF-CEM, percent of maximum response compared with SDF-1α, read-out: % Intrinsic Activity
[4] = Pharmacokinetic analysis in mice (plasma, LC/MS); type: in vivo; conditions: for bioavailability / half-life / MRT inf / Tmax: male, mouse, in vivo, 2.5 umol/kg; for half-life / MRT inf / Tmax: sc
Experimental: To determine the pharmacokinetic profile of the CXCR4 modulators, compounds were administered as single subcutaneous injection to 6-8 week old male mice at doses of either […] (three or four mice/group). […] Dosing of 0.5 μmol/kg or 1 μmol/kg were used for intravenous dosing. […] Mice were sacrificed and blood samples collected at 15 minutes, 30 minutes, 1 hour, 2 hours, 4 hours, 8 hours, and 24 hours after dosing. The concentration of compound in plasma samples was analyzed by LC/MS according to the method below.
To this, 5 μL of the analyte compound in AcN:H2O:FA (70:30:1%) of 100 μM concentration was added to get 5 μM concentration.
Serial calibration standards in plasma or plasma samples were transferred to clean labeled tubes and mixed with 3 volumes of acetonitrile with internal standard, tolbutamide, in order to precipitate proteins. The mixtures were vortexed and centrifuged at 12000 RPM (15320 g) for 10 minutes. Supernatants were transferred to HPLC injection vials or 96-well plates and 5 μL were injected into the LC-MS/MS system.
Noncompartmental pharmacokinetic analyses were performed using WinNonlin Professional (version 5.2) software (Pharsight, Cary, N.C.). The data were analyzed using the extravascular input model. For each subject, pharmacokinetic parameters were calculated individually as follows and then averaged. The maximum drug concentration in plasma, Cmax, and Tmax, the time to achieve Cmax, were calculated directly from the concentration-time curves. The area under the plasma concentration-time curve from hour 0 to the last measurable concentration in plasma, AUClast, was estimated by the linear trapezoidal rule. The area under the plasma concentration-time curve from hour 0 to infinity estimated using the following formula: AUCinf—obs=AUClast+Ct/Lambda_z, where Ct is the last measurable concentration in plasma, and Lambda_z is the terminal elimination rate constant estimated using log-linear regression during the terminal elimination phase. The number of points used in Lambda_z calculation was determined by visual inspection of the data describing the terminal phase and evaluation of the correlation coefficient associated with the regression line. T1/2, the terminal elimination half-life=ln(2)/Lambda_z. Mean residence time MRT, was calculated as following: MRT=(AUMCinf/AUCinf). Subcutaneous absorption bioavailability was calculated as the AUCinf following subcutaneous dosing divided by the AUCinf following intravenous dosing. Results were expressed as percentages.

male BALB/c mice = assay: Mobilization of polymorphonuclear leukocytes (PMNs) in mice; type: in vivo; conditions: for Lymphocytes (×10^3 μl) Mean ± SD / PMNs (×10^3 μl) Mean ± SD: blood 3 hours after injection
Experimental: The effect of Compound 26 on mobilization of PMNs following subcutaneous administration was evaluated in mice. […] Louis, Mo.) was administered subcutaneously to 10 mice. […] Neutrophil and lymphocyte counts were determined using a Hemavet Model 950FS cell counter (Drew Scientific, Dallas, Tex.).

T1 sequence (P61073 whole entry): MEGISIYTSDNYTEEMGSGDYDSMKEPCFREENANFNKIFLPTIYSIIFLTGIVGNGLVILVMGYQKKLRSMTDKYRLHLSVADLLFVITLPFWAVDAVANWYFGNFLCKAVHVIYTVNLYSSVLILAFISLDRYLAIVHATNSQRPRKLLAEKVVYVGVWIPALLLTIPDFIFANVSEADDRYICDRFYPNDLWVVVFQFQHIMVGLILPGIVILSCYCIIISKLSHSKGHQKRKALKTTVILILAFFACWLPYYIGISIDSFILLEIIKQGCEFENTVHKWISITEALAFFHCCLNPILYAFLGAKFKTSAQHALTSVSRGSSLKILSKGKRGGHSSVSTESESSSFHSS

Compound: 43: i3 loop peptide SKLSHSKGHQKRKALKTTVIL (SEQ ID NO: 39), lipid Pal (also: lipid Pal attached, position not given here) [Compound 43]
AUC (% of Vehicle) (CXCR4 [2]): 226.59 % of Vehicle
Max (% of Vehicle) (CXCR4 [2]): 202.16 % of Vehicle

Compound: CCCCCCCCCCCCCCCC(=O)NCC(=O)NCC(=O)N[C@@H](Cc1ccc(O)cc1)C(=O)N[C@@H](CCC(N)=O)C(=O)N[C@@H](CCCCN)C(=O)N[C@@H](CCCCN)C(=O)N[C@@H](CC(C)C)C(=O)N[C@@H](CCCNC(=N)N)C(=O)N1CCC[C@@H]1C(=O)N[C@@H](Cc1c[nH]cn1)C(=O)N[C@H](C(=O)N[C@@H](CC(=O)O)C(=O)N[C@@H](CCCCN)C(=O)N[C@@H](Cc1ccc(O)cc1)C(=O)N[C@@H](CCCNC(=N)N)C(=O)N[C@@H](CC(C)C)C(N)=O)[C@@H](C)O [Compound 26] (Palmitoyl-GGYQKKLR[dP]HTDKYRL-NH2; C-terminus assumed)
Emax (CXCR4 [3]): 91.2%
bioavailability ([4]; mice, subcutaneous 2.5 μmol/kg, AUCinf subcutaneous divided by AUCinf intravenous, read-out: Bioavailability (%)): 88%
half-life ([4]; mice, single subcutaneous injection, 2.5 μmol/kg, read-out: Half-life elimination (converted)): 144 min
MRT inf ([4]; mice, single subcutaneous injection, 2.5 μmol/kg, read-out: MRT INFobs): 4.5 h
Tmax ([4]; mice, single subcutaneous injection, 2.5 μmol/kg, read-out: Tmax): 2 h
bioavailability following subcutaneous administration (comparison in words) ([4]; mice, subcutaneous): greater than that of compound 48
Lymphocytes (×10^3 μl) Mean ± SD (male BALB/c mice; 0.2 μmol/kg subcutaneous): 4.39 ± 1.33 ×10^3 μl
PMNs (×10^3 μl) Mean ± SD (male BALB/c mice; 0.2 μmol/kg subcutaneous): 3.60 ± 1.89 ×10^3 μl
Lymphocytes (×10^3 μl) Mean ± SD (male BALB/c mice; 0.66 μmol/kg subcutaneous): 5.14 ± 2.22 ×10^3 μl
PMNs (×10^3 μl) Mean ± SD (male BALB/c mice; 0.66 μmol/kg subcutaneous): 5.03 ± 1.97 ×10^3 μl
Lymphocytes (×10^3 μl) Mean ± SD (male BALB/c mice; 2 μmol/kg subcutaneous): 4.15 ± 1.97 ×10^3 μl
PMNs (×10^3 μl) Mean ± SD (male BALB/c mice; 2 μmol/kg subcutaneous): 5.92 ± 1.73 ×10^3 μl
Lymphocytes (×10^3 μl) Mean ± SD (male BALB/c mice; 6.66 μmol/kg subcutaneous): 3.74 ± 2.12 ×10^3 μl
PMNs (×10^3 μl) Mean ± SD (male BALB/c mice; 6.66 μmol/kg subcutaneous): 7.11 ± 2.82 ×10^3 μl
release of bone marrow PMNs (in words) (male BALB/c mice; systemic, subcutaneous injection): acted as a functional antagonist to elicit release of bone marrow PMNs in a dose responsive fashion

Compound: c1cc(CN2CCCNCCNCCCNCC2)ccc1CN1CCCNCCNCCCNCC1 [AMD3100, reference compound]
Lymphocytes (×10^3 μl) Mean ± SD (male BALB/c mice; 6.66 μmol/kg subcutaneous): 8.76 ± 1.67 ×10^3 μl
PMNs (×10^3 μl) Mean ± SD (male BALB/c mice; 6.66 μmol/kg subcutaneous): 7.83 ± 3.20 ×10^3 μl

Compound: 44: i4 loop peptide GAKFKTSAQHALTSVR (SEQ ID NO: 40), lipid Pal (also: lipid Pal attached, position not given here) [Compound 44]
AUC (% of Vehicle) (CXCR4 [2]): 56.75 % of Vehicle
Max (% of Vehicle) (CXCR4 [2]): 56.7 % of Vehicle

Now from value to compound:

Emax (CXCR4 [1]): 107%
Compound: CCCCCCCCCCCCCCCCS(=O)(=O)NCC(=O)NCC(=O)N[C@@H](Cc1ccc(O)cc1)C(=O)N[C@@H](CCC(N)=O)C(=O)N[C@@H](CCCCN)C(=O)N[C@@H](CCCCN)C(=O)N[C@@H](CC(C)C)C(=O)N[C@@H](CCCNC(=N)N)C(=O)N1CCC[C@@H]1C(=O)N[C@@H](Cc1c[nH]cn1)C(=O)N[C@H](C(=O)N[C@@H](CC(=O)O)C(=O)N[C@@H](CCCCN)C(=O)N[C@@H](Cc1ccc(O)cc1)C(=O)N[C@@H](CCCNC(=N)N)C(=O)N[C@@H](CC(C)C)C(N)=O)[C@@H](C)O [Compound 46, CH3(CH2)15SO2— GGYQKKLRpHTDKYRL-amide] (Hexadecanesulfonyl-GGYQKKLR[dP]HTDKYRL-NH2)

bioavailability [4]: < 30%
MRT inf [4]: 2.6 h
Tmax [4]: 2 h
half-life [4]: 90 min
Compound: CCCCCCCCCCCCCCCC(=O)N[C@@H](CCSC)C(=O)NCC(=O)N[C@@H](Cc1ccc(O)cc1)C(=O)N[C@@H](CCC(N)=O)C(=O)N[C@@H](CCCCN)C(=O)N[C@@H](CCCCN)C(=O)N[C@@H](CC(C)C)C(=O)N[C@@H](CCCNC(=N)N)C(=O)N[C@@H](CO)C(=O)N[C@@H](CCSC)C(=O)N[C@H](C(=O)N[C@@H](CC(=O)O)C(=O)N[C@@H](CCCCN)C(=O)N[C@@H](Cc1ccc(O)cc1)C(=O)N[C@@H](CCCNC(=N)N)C(=O)N[C@@H](CC(C)C)C(N)=O)[C@@H](C)O [Compound 48] (Palmitoyl-MGYQKKLRSMTDKYRL-NH2)

Emax (CXCR4 [3]): 89.4%
Compound: CCCCCCCCCCCCCCCC(=O)NCC(=O)NCC(=O)N[C@@H](Cc1ccc(O)cc1)C(=O)N[C@@H](CCC(N)=O)C(=O)N[C@@H](CCCCN)C(=O)N[C@@H](CCCCN)C(=O)N[C@@H](CC(C)C)C(=O)N[C@@H](CCCNC(=N)N)C(=O)N[C@@H](CO)C(=O)N[C@@H](C)C(=O)N[C@H](C(=O)N[C@@H](CC(=O)O)C(=O)N[C@@H](CCCCN)C(=O)N[C@@H](Cc1ccc(O)cc1)C(=O)N[C@@H](CCCNC(=N)N)C(=O)N[C@@H](CC(C)C)C(N)=O)[C@@H](C)O [Compound 25] (Palmitoyl-GGYQKKLRSATDKYRL-NH2; C-terminus assumed)

Emax (CXCR4 [3]): 100%
Compound: CCCCCCCCCCCCCCCC(=O)N[C@@H](CCSC)C(=O)NCC(=O)N[C@@H](Cc1ccc(O)cc1)C(=O)N[C@@H](CCC(N)=O)C(=O)N[C@@H](CCCCN)C(=O)N[C@@H](CCCCN)C(=O)N[C@@H](CC(C)C)C(=O)N1CCC[C@H]1C(=O)N[C@@H](CCCNC(=N)N)C(=O)N[C@@H](CO)C(=O)N[C@@H](CCSC)C(=O)N[C@H](C(=O)N[C@@H](CC(=O)O)C(=O)N[C@@H](CCCCN)C(=O)N[C@@H](Cc1ccc(O)cc1)C(=O)N[C@@H](CCCNC(=N)N)C(=O)N[C@@H](CC(C)C)C(N)=O)[C@@H](C)O [Compound 7] (Palmitoyl-MGYQKKLPRSMTDKYRL-NH2; C-terminus assumed)
